The source of these data is patent publication US7989466B2, “Methods to inhibit or augment an inflammatory response” (Cambridge Enterprise Limited, priority 1999, dated 2011).

For orientation: pKa means the pH at which an ionisable group is half protonated. In general, solubility refers to the dissolved amount per volume that the medium holds. A word on the half-life: it is the time needed for the level to fall by half in the phase considered.

Values after ≈ are worked out from the molar mass of the structure shown. Positions of bridges follow the written chain, without caps; N, C: chain ends. Non-standard residues stand in square brackets, D forms with d. Residues, ends and D or L forms follow the SMILES beside them.

Data set [1] relates to MCP-1 co-mitogenic effect, cultured smooth muscle cells. Description: Co-mitogenic effect of MCP-1 on cultured smooth muscle cells. Type of data set: cell-based. As to conditions: 100 μM; MCP-1 with 0.5% fetal calf serum. How it is done:
Many chemokines are co-mitogenic with low concentrations of FCS, e.g., 50 ng/ml MCP-1+0.5% FCS is a mitogen for smooth muscle cells. Assays well known to the art for determination of DNA synthesis induced by any known chemokine plus a low concentration (<5%) of FCS on suitable cells (e.g., smooth muscle cells) in the presence and absence of the agent may be employed to screen agents for such inhibitory activity. See Porreca et al., J. Vasc. Res., 34, 58 (1997), the disclosure of which is incorporated by reference herein.
Peptide 3(1-12)[MCP-1] […] MCP-1 has been reported to be a weak co-mitogen with 0.5% fetal calf serum for cultured smooth muscle cells. […] (SEQ ID NO:1) is an MCP-1 receptor antagonist. The observation that peptide 3(1-12)[MCP-1]

A short description of data set [2]: Acute and 7-day repeat dose rat toxicity. Type of data set: in vivo. As to conditions: 1 or 10 mg (5-50 mg/kg) i.v. An excerpt:
That is, all animals remained clinically normal throughout.

The nature of data set [3]: Competition of 125I-MCP-1 binding to heparin-coated agarose beads. As to conditions: 10^−11 to 10^−4 M. An excerpt: Chemokines bind to glycosaminoglycans on the cell surface, which may facilitate chemokine receptor binding and subsequent signaling. […] This was followed by a monophasic displacement curve at concentrations of approximately 10^−7 to 10^−5 M MCP-1.
Data set [4] concerns chemokine induced calcium flux. Description: Intracellular calcium flux in THP-1 cells (Fura2). Type of data set: cell-based, human. How it is done:
CRD-Leu4Ile11Cys13 peptide 3(3-12)[MCP-1] at 6.7 μg/ml was incubated with THP-1 cells (2×10^6 cells/ml) for 25 minutes prior to exposure to agonist (10 ng/ml) and measurement of flux. The second exposure to agonist is 2 minutes later. Fluorescence is measured at 510 nm.
Monocytes, eosinophils, neutrophils and lymphocytes loaded with Fura-2 (0.1 nmol/10^5 cells) are stimulated with a chemokine in the presence or absence of the therapeutic agent, and [Ca^2+]i-related fluorescence changes are recorded (Von Tschanner et al., Nature, 324, 369 (1986)). […] The Fura-2 fluorescence of the monocyte suspension is measured at 37° C. in a single excitation, single emission (500 nm) wavelength Perkin-Elmer LS5 fluorometer. [Ca^2+]i is calculated from changes in fluorescence measured at a single excitation wavelength of 340 nm.
After peptide 3 binds to its receptor, it may block proteins required to effect the response (e.g., block specific integrins needed for chemokine-induced migration but not fNLP or TGFb induced migration), down regulate a chemokine receptor, or interfere with signal transduction mechanisms. Interference with signal transduction mechanisms can be detected in either a direct or indirect manner (for example, using assays for measuring intracellular calcium flux, cAMP, pI3, kinase activity, and DAG).
For orientation: A change in cytosolic calcium serves as a functional read-out for many receptors and channels.

In data set [5] the test system is T cell-dependent antibody response. Description: Antibody response in mice immunized with sheep red blood cells. Type of data set: in vivo, mouse. As to conditions: T cell-independent response not prevented.
The next data set can be described thus: in vivo. As to conditions: female, Sprague-Dawley, rat, iv, 8.8 mg; for dose excreted: rats, 8.8 mg i.v.
In data set [6] the test system is splenocyte recall response to Ova. As to the kind of experiment: Splenocyte recall cultures from ovalbumin-challenged treated mice. Further details: IL-4, Avg. of Group: unit not given here. Type of data set: in vivo, mouse. How it is done: In another study, BALB/c mice were sensitized with 0.1 mg of ovalbumin (OVA) or PBS (diluent control) intraperitoneally. Eight days following initial sensitization mice were challenged intratracheally with 1% ovalbumin or PBS (diluent control). On days fifteen, eighteen, twenty one, and thirty four, mice were challenged intratracheally with 2% ovalbumin of PBS. […] Thirty minutes following treatment, mice were challenged intratracheally with 2% OVA and sacrificed 3 hours after OVA challenge. […] On day 34 mice were re-challenged intratracheally with either 2% OVA or PBS. Mice were sacrificed 3 hours after challenge. Following sacrifice on day 21 or 34, lungs were collected for histopathology and for isolation of cells for total cell counts and identification by FACS analysis. Serum was collected for IgE and IL-4 levels. Spleens were collected for cytokine and antibody recall responses.

With EICADPKQKWVQ [peptide 3(1-12)[MCP-1]], the “effect on the co-mitogenic effect of MCP-1 for cultured smooth muscle cells” value in data set [1] is given as “completely abolished”.

Take `C=CCCCCCCCCC(=O)N[C@H]1CCC(=O)NC1=O` [A-I (NR58.4), [3S]-3-(undec-10-enoylamino)piperidine-2,6-dione]: the pKa in the data set “physchem” was ~11. Moreover, the solubility in the data set “physchem” (organic solvent or mixture) was > 200000 µg/mL; in “physchem” (pH 11, water) it was 5000 µg/mL (≈ 17 mM).

On to `CC[C@@H](C)[C@H]1NC(=O)[C@@H](CCC(N)=O)NC(=O)[C@H](N)CSSC[C@H](C(N)=O)NC(=O)[C@@H](CC(C)C)NC(=O)[C@@H](CC(=O)O)NC(=O)[C@H]2CCCN2C(=O)[C@@H](CCCCN)NC(=O)[C@@H](CCC(N)=O)NC(=O)[C@@H](CCCCN)NC(=O)[C@@H](Cc2c[nH]c3ccccc23)NC1=O` (H-[dC][dQ][dI][dW][dK][dQ][dK][dP][dD][dL][dC]-NH2; disulfide 1-11; N-terminus assumed), for which the “acute rat toxicity, clinical findings” value in data set [2] is on record as “no clinically detectable changes”. Moreover, the “displacement of 125I-MCP-1 from heparin-coated agarose beads” value in data set [3] is “did not result in displacement”. In addition, in data set [4], the “effect on MCP-1 induced calcium flux” value is “did not block” and the “effect on SDF-1 induced calcium flux” value is given as “did block”. The “T cell-dependent antibody response” value in data set [5] is listed as “prevented”. The half-life in “in vivo” is ~10 min. In the data set “in vivo” (administered dose recovered in urine over 24 hours), the dose excreted was ~70%. In addition, in “in vivo” (dose excreted in urine over the first two hours), the dose excreted was > 55%. For the same molecule, in data set [6] (Group 5: Ova days 8, 15, 18, 21, peptide BID 14 days, sacrifice day 34 (No recent Ova challenge), 0 μg/ml Ova), the “IL-4, Avg. of Group” value turned out to be 8.05. In addition, in data set [6] (Group 5, 5 μg/ml Ova), the “Total IgE (1 week splenocyte cultures)” value is 0.082 ng/mL and the “Total IgE (1 week splenocyte cultures), Avg.” value stood at 0.021.
